From ChEMBL document CHEMBL4364283 (J Med Chem, 2019)
Active and inactive are the calls of the source. The calls are words filed in the database; no cut-off is given here.

Columns and labels:
Menin [1] = biological target: T1, Menin (Homo sapiens, UniProt O00255); assay: Inhibition of FAM-probe binding to Menin (unknown origin) after 60 mins by fluorescence polarization competitive binding assay
T1 sequence (O00255 whole entry): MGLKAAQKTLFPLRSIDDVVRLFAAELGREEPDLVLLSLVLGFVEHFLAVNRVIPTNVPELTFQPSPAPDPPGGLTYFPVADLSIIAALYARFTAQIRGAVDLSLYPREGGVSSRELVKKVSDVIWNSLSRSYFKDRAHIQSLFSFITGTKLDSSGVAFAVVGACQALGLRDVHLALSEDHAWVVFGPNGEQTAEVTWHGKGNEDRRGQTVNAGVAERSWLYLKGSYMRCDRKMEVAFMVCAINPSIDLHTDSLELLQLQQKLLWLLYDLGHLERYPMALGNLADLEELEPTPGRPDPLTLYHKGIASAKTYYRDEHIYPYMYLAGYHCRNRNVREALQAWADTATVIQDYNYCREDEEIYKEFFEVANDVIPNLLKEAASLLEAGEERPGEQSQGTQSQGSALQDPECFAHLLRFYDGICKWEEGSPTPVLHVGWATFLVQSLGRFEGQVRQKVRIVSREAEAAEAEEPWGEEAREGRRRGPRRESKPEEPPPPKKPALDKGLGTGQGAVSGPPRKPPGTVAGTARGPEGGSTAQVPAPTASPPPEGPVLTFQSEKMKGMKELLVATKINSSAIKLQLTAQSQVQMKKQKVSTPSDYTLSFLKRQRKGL

MV4-11 [2] = assay: cells; details: Homo sapiens, MV4-11, 96 h
Menin [3] = biological target: T1, Menin; assay: Binding affinity to human Menin expressed in Escherichia coli Rosetta2 (DE3) cells by isothermal titration calorimetry
MV4-11 [4] = assay: Induction of differentiation in human MV4-11 cells assessed as increase in CD11b positive cells at 0.03 to 3 uM after 24 hrs by phycoerythrin staining-based flow cytometric analysis; assay type: functional, cell-based
MV4-11 [5] = assay: Induction of differentiation in human MV4-11 cells assessed as increase in CD11b positive cells after 48 hrs by phycoerythrin staining-based flow cytometric analysis; assay type: functional, cell-based
Mus musculus [6] = assay: Downregulation of Hoxa9 expression in tumors of mouse xenografted with human MV411 cells at 50 mg/kg , ip administered daily for 3 days and measured after 6 to 48 hrs by RT-qPCR analysis; assay type: functional, organism-based
Mus musculus [7] = assay: Downregulation of MEIS1 expression in tumors of mouse xenografted with human MV411 cells at 50 mg/kg , ip administered daily for 3 days and measured after 6 to 48 hrs by RT-qPCR analysis; assay type: functional, organism-based
Menin [8] = biological target: T1, Menin
[9] = biological target: T2, Menin/Histone-lysine N-methyltransferase MLL (Homo sapiens) (UniProt O00255+Q03164); details: 30 to 300 nM
[10] = biological target: T2, Menin/Histone-lysine N-methyltransferase MLL (Homo sapiens); details: 100 nM
[11] = biological target: T2, Menin/Histone-lysine N-methyltransferase MLL (Homo sapiens); details: 30 to 300 nM; remark: listed apart in the source
[12] = biological target: T2, Menin/Histone-lysine N-methyltransferase MLL (Homo sapiens); details: 100 nM; remark: listed apart in the source
Menin [13] = biological target: Menin (Homo sapiens, UniProt O00255); assay: Inhibition of fluorescent probe binding to Menin (2 to 610 residues containing deletion from 460-519) (unknown origin) after 60 mins by fluorescence polarization competitive binding assay
[14] = Solubility of the compound; assay type: physicochemical
MOLM-13 = assay: Growth inhibition of human MOLM13 cells after 4 days by WST-8 assay; assay type: functional, cell-based; details: MOLM-13, 96 h
HL-60 = assay: Growth inhibition of human HL60 cells after 4 days by WST-8 assay; assay type: functional, cell-based; details: HL-60, 96 h

T2 sequence (Q03164 1-2718 partner limits assumed, one chain of several): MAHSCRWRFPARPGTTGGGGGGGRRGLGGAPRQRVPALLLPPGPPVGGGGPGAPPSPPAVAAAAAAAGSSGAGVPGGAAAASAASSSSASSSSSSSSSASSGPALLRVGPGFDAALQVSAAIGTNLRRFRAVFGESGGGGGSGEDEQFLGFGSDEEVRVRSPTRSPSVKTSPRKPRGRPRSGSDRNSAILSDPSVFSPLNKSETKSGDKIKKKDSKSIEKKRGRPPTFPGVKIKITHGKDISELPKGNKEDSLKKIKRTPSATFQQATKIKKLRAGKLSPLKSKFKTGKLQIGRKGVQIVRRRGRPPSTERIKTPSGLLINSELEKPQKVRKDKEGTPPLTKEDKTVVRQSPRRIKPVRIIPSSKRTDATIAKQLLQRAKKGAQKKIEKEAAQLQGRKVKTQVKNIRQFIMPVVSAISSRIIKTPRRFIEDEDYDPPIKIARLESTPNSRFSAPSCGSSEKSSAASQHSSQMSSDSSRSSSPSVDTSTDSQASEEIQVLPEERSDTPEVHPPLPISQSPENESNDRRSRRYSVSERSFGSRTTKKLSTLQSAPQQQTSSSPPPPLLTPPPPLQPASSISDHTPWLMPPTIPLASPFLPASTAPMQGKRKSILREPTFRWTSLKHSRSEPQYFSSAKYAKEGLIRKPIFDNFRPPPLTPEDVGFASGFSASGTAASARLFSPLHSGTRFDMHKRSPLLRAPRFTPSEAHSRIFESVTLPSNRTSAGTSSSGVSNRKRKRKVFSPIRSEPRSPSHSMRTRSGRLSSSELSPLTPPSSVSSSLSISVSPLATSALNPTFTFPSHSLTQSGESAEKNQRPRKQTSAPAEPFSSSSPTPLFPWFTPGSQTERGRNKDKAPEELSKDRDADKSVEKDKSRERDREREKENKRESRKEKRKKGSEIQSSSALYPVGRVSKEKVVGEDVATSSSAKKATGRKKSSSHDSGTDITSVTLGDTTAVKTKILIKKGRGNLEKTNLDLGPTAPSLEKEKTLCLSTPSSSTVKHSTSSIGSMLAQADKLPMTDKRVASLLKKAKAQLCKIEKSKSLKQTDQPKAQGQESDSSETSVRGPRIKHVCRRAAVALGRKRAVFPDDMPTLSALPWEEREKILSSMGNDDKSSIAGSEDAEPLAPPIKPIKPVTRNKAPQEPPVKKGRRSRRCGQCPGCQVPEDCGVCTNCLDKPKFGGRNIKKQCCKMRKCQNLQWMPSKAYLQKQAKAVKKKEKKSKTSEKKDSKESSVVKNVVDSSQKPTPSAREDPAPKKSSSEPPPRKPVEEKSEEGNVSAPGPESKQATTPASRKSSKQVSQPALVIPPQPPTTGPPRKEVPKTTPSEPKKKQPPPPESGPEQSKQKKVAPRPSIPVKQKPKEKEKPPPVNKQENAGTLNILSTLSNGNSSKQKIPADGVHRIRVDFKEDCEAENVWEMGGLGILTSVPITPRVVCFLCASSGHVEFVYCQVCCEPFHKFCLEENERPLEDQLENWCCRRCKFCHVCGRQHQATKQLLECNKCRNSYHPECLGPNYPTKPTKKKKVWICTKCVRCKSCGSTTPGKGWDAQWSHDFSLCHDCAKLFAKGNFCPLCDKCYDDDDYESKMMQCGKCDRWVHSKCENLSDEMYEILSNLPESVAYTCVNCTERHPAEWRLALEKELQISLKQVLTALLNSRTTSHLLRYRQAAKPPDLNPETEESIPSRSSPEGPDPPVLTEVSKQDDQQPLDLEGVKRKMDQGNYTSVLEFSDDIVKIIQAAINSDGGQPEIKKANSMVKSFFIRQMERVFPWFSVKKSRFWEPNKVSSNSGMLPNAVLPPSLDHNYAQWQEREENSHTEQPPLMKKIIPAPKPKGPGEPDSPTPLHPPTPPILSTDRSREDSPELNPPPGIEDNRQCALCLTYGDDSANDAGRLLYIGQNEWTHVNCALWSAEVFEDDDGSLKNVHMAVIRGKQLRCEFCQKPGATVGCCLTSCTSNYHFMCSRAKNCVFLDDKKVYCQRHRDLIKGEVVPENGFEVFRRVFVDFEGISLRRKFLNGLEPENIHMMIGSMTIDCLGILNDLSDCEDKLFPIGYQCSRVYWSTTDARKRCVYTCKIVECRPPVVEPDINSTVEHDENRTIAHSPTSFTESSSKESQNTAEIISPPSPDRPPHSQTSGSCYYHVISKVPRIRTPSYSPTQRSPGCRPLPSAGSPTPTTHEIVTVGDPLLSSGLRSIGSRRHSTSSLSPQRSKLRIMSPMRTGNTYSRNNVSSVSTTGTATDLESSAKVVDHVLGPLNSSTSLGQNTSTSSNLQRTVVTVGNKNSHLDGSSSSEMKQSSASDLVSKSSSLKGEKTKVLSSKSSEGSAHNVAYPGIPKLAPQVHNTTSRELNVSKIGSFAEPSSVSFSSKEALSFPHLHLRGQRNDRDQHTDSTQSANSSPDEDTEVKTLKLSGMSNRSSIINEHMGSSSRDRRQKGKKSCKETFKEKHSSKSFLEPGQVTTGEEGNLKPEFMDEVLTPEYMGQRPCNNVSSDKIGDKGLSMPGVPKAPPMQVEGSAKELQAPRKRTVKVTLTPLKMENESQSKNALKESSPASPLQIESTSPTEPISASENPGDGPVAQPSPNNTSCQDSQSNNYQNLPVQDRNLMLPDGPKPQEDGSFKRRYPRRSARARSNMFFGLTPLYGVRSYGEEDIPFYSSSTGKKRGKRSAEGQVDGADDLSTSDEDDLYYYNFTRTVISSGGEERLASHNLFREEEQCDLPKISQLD
T2 sequence (Q03164 2719-3969 partner limits assumed, one chain of several): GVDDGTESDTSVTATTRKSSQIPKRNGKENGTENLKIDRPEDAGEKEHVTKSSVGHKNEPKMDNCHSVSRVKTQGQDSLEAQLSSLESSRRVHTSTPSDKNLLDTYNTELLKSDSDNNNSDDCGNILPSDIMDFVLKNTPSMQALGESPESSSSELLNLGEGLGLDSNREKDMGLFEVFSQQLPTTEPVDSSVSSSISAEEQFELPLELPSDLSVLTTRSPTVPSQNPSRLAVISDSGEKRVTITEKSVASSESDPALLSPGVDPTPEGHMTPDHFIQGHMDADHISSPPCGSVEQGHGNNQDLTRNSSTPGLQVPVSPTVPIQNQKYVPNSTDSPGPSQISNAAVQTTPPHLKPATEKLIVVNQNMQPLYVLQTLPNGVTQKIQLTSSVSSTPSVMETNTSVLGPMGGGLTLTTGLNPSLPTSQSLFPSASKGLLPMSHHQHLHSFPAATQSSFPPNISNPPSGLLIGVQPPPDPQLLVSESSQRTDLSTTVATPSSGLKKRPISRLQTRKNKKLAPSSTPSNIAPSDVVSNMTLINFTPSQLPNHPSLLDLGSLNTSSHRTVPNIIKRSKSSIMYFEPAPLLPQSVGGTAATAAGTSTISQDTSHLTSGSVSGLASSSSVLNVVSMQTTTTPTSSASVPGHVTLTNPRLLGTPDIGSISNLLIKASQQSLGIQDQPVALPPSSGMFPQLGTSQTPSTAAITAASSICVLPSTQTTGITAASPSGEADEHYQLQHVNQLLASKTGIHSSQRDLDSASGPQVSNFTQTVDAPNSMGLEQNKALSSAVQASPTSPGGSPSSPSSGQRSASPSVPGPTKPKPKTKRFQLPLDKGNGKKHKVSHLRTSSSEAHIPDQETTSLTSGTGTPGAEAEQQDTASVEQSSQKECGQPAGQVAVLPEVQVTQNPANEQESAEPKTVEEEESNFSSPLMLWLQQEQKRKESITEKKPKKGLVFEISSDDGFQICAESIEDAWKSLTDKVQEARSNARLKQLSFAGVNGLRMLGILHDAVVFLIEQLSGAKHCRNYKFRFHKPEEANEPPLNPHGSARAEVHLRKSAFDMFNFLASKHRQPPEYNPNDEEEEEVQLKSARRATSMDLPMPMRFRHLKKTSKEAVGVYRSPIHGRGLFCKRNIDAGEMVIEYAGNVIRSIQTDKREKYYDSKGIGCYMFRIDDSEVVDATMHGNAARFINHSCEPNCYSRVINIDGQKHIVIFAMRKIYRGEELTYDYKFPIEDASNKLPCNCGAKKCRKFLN

Structure (SMILES) | IC50 (Menin [1]) [µM] | Ki (Menin [1]) [µM] | IC50 (MV4-11 [2]) [µM] | other results
CC(=O)O[C@H]1CCC[C@@H]1[C@](C#N)(c1ccccc1)C1CCN(CC2CN(c3ccc(C#N)cc3)C2)CC1 (mixture of isomers) | 0.04 | 0.012 | 1.7 | 
O=S(=O)(c1ccc(N2CC(CN3CCC(C4(C5CCCC5)NCCc5ccccc54)CC3)C2)cc1)C1CCCCC1 (configuration not stated) | 0.01 | 0.0024 | 1.1 | 
N#Cc1ccc(N2CCCC(CN3CCC(C4(C5CCCC5)NCCc5ccccc54)CC3)C2)cc1 (configuration not stated) | 6.6 | 2.13 |  | 
CC(=O)N[C@H]1CCC[C@@H]1[C@](C#N)(c1ccccc1)C1CCN(CC2CN(c3ccc(C#N)cc3)C2)CC1 (racemic) | 0.102 | 0.032 | 3.9 | 
N#Cc1ccc(OCCCCN2CCC(C3(C4CCCC4)NCCc4ccccc43)CC2)cc1 (configuration not stated) | 5 | 1.3 | 0.5 | 
O=S(=O)(c1ccccc1)c1ccc(N2CC(CN3CCC(C4(C5CCCC5)NCCc5ccccc54)CC3)C2)cc1 (configuration not stated) | 0.02 | 0.0056 | 0.5 | 
CC(C)S(=O)(=O)c1ccc(N2CC(CN3CCC(C4(C5CCCC5)NCCc5ccccc54)CC3)C2)cc1 (configuration not stated) |  | 0.021 | 1.1 | 
CCCC(=O)O[C@H]1CCC[C@@H]1[C@](C#N)(c1ccccc1)C1CCN(CC2CN(c3ccc(C#N)cc3)C2)CC1 (mixture of isomers) | 1.1 | 0.35 | 10.7 | 
N#Cc1ccc(N2CC(CN3CCC(C4(C5CCCC5)NCCc5ccccc54)CC3)C2)cc1 (configuration not stated) |  | 0.011 | 1.3 | 
O=S(=O)(c1ccncc1)c1ccc(N2CC(CN3CCC(C4(C5CCCC5)CNCc5ccccc54)CC3)C2)cc1 (configuration not stated) |  | 0.0017 | 0.98 | 
N#Cc1cc2cc(CN3CCC(Nc4ncnc5sc(CC(F)(F)F)cc45)CC3)c(O)cc2n1Cc1cn[nH]c1 |  |  |  | Kd (Menin [3]): 0.01 µM
O=S(=O)(c1ccncc1)c1ccc(N2CC(CN3CCC(C4(C5CCCC5)CN(CCN5CCOCC5)Cc5ccccc54)CC3)C2)cc1 (configuration not stated) |  | 0.0027 | 1.55 | 
O=S(=O)(c1ccc(N2CC(CN3CCC(C4(C5CCCC5)NCCc5ccccc54)CC3)C2)cc1)C1CCCC1 (configuration not stated) | 0.017 | 0.0046 | 0.9 | 
CCS(=O)(=O)c1ccc(N2CC(CN3CCC(C4(C5CCCC5)NCCc5ccccc54)CC3)C2)cc1 (configuration not stated) | 0.034 | 0.01 | 2.1 | 
CNC(=O)O[C@H]1CCC[C@@H]1[C@](C#N)(c1ccccc1)C1CCN(CC2CN(c3ccc(C#N)cc3)C2)CC1 (mixture of isomers) | 0.011 | 0.0027 | 0.3 | 
CCN1Cc2ccccc2C(C2CCCC2)(C2CCN(CC3CN(c4ccc(S(=O)(=O)c5ccncc5)cc4)C3)CC2)C1 (configuration not stated) |  | 0.001 | 0.84 | 
O=S(=O)(c1ccncc1)c1ccc(N2CC(CN3CCC(C4(C5CCCC5)CN(Cc5ccncc5)Cc5ccccc54)CC3)C2)cc1 (configuration not stated) |  | 0.361 | 1.33 | 
N#Cc1ccc(OCCCN2CCC(C3(C4CCCC4)NCCc4ccccc43)CC2)cc1 (configuration not stated) |  |  | 1.4 | 
CNC(=O)O[C@H]1CCC[C@@H]1[C@]1(C2CCN(CC3CN(c4ccc(S(=O)(=O)c5ccncc5)cc4)C3)CC2)CN(C)Cc2ccccc21 (mixture of isomers) | 0.005 | < 0.001 |  | Activity (MV4-11 [4]): Active; Activity (MV4-11 [5]): Dose-dependent effect; Activity (Mus musculus [6]): Active; Activity (Mus musculus [7]): Active; Kd (Menin [8]): 0.0014 µM; inhibition [9]: Active; inhibition [10]: Active; inhibition [11]: Active; inhibition [12]: Active

Structure (SMILES) | IC50 (Menin [1]) [µM] | Ki (Menin [1]) [µM] | IC50 (MV4-11 [2]) [µM] | other results
O=S(=O)(c1ccncc1)c1ccc(N2CC(CN3CCC(C4(C5CCCC5)CN(CC5CC5)Cc5ccccc54)CC3)C2)cc1 (configuration not stated) |  | 0.0014 | 1.37 | 
N#Cc1ccc(N2CCC(CN3CCC(C4(C5CCCC5)NCCc5ccccc54)CC3)C2)cc1 (configuration not stated) | 0.088 | 0.027 | 2.4 | 
O=S(=O)(c1ccc(N2CC(CN3CCC(C4(C5CCCC5)NCCc5ccccc54)CC3)C2)cc1)C1CCC1 (configuration not stated) |  | 0.011 | 1.7 | 
N#Cc1ccc(OCCN2CCC(C3(C4CCCC4)NCCc4ccccc43)CC2)cc1 (configuration not stated) | 21.2 | 5.5 | 1.8 | 
N#Cc1ccc(N2CCC(N3CCC(C4(C5CCCC5)NCCc5ccccc54)CC3)CC2)cc1 (configuration not stated) | 0.65 | 0.207 | 6.33 | 
CS(=O)(=O)c1ccc(N2CC(CN3CCC(C4(C5CCCC5)NCCc5ccccc54)CC3)C2)cc1 (configuration not stated) | 0.143 | 0.045 | 4.43 | 
O=S(=O)(c1ccncc1)c1ccc(N2CC(CN3CCC(C4(C5CCCC5)CN(CC5COC5)Cc5ccccc54)CC3)C2)cc1 (configuration not stated) |  | 0.007 | 1.57 | 
CCO[C@H]1CCC[C@@H]1[C@](C#N)(c1ccccc1)C1CCN(CC2CN(c3ccc(C#N)cc3)C2)CC1 (racemic) | 5.4 | 1.7 | 4.3 | 
COC(=O)N[C@H]1CCC[C@@H]1[C@](C#N)(c1cccc(F)c1)C1CCN(CC2CN(c3ccc(S(=O)(=O)C4CN(C(=O)/C=C/CN(C)C)C4)cc3)C2)CC1 |  |  |  | IC50 (Menin [13]): 0.003 µM
CC(=O)O[C@@H]1CCC[C@H]1[C@](C#N)(c1ccccc1)C1CCN(CC2CN(c3ccc(C#N)cc3)C2)CC1 (relative stereo) |  |  | 14.3 | 
CCC(=O)O[C@H]1CCC[C@@H]1[C@](C#N)(c1ccccc1)C1CCN(CC2CN(c3ccc(C#N)cc3)C2)CC1 (mixture of isomers) | 0.033 | 0.0097 | 2.2 | 
CC(C)N1Cc2ccccc2C(C2CCCC2)(C2CCN(CC3CN(c4ccc(S(=O)(=O)c5ccncc5)cc4)C3)CC2)C1 (configuration not stated) |  | 0.0014 | 0.91 | 
O=S(=O)(c1ccc(N2CC(CN3CCC(C4(C5CCCC5)NCCc5ccccc54)CC3)C2)cc1)C1CC1 (configuration not stated) |  | 0.007 | 1.2 | 
N#Cc1ccc(N2CC(CN3CCC(C(C#N)(c4ccccc4)C4CCCC4)CC3)C2)cc1 (racemic) | 3 | 0.96 | 16.9 | 
O=S(=O)(c1ccncc1)c1ccc(N2CC(CN3CCC(C4(C5CCCC5)NCCc5ccccc54)CC3)C2)cc1 (configuration not stated) | 0.017 | 0.0046 | 1.3 | solubility [14]: Soluble
O=S(=O)(c1ccncc1)c1ccc(N2CC(CN3CCC(C4(C5CCCC5)CN(C5CCC5)Cc5ccccc54)CC3)C2)cc1 (configuration not stated) |  | 0.002 | 0.9 | 
CN1Cc2ccccc2C(C2CCCC2)(C2CCN(CC3CN(c4ccc(S(=O)(=O)c5ccncc5)cc4)C3)CC2)C1 (configuration not stated) | 0.011 |  |  | IC50 (MOLM-13): 4.3 µM; IC50 (HL-60): 2.5 µM
Cc1c(CN2CCC(Nc3ncnc4sc(CC(F)(F)F)cc34)CC2)ccc2c1cc(C#N)n2Cc1cn[nH]c1 |  |  |  | Kd (Menin [3]): 0.01 µM
